According to PMC7161699 (Acta Pharmaceutica Sinica. B, 2019):
pIC50: −log10 of the molar value.

Biological target: PAK1 (Homo sapiens, UniProt Q13153)
Experiment: Z'-LYTE kinase assay, Ser/Thr […] peptide
Assay type: biochemical

Sequence of PAK1 (Q13153 2-545): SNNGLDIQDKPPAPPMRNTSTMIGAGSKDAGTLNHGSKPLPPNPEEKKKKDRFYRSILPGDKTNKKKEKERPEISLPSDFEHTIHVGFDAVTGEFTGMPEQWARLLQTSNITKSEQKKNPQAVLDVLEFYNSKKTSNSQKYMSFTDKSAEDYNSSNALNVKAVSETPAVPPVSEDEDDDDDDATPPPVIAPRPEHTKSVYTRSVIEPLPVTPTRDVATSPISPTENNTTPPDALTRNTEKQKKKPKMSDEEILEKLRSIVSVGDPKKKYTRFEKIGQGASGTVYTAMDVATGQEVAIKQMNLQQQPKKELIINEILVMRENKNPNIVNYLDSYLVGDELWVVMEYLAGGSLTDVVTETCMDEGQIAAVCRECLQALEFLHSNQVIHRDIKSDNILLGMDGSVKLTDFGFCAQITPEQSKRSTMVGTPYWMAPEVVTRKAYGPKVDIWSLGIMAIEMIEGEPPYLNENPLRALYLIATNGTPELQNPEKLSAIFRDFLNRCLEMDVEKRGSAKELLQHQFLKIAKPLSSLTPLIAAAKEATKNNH

Cc1ccc2[nH]c(=O)c3cc(C(=O)NCCCN(C)Cc4ccccc4)sc3c2c1 [CP734, N-[3-(benzyl-methylamino)propyl]-8-methyl-4-oxo-5H-thieno[4,5-c]quinoline-2-carboxamide]
pIC50: 4.82
